Measurements as given in patent US6379882B1, “Method for selecting compounds for treating ischemia-related cellular damage” (Elan Pharmaceuticals, Inc., priority 1998, dated 2002).
“Also recorded” adds a separate entry of the source. Where two headings read alike, the source gives them in different places.

Columns and labels:
retinal ganglion cells [1] = conditions: literature; cited from earlier work
retinal ganglion cells [2] = format: cell-based, rat
[3] = system: rat neocortical tissue slices; conditions: Evans et al. 1982; Kral et al. 1993; cited from earlier work
cortical neuronal cells = conditions: cited from earlier work
[4] = system: isolated retinas of chick embryos; conditions: LDH release and histological assessment; Chen et al. 1998; cited from earlier work
NMDA receptor = conditions: whole cell recordings; Chen et al. 1998; cited from earlier work
retinal ganglion cells [5] = conditions: Lagreze et al. 1998, cited from earlier work
[6] = co-exposure to 1.0 mM, about 24 hours, Yamamoto and Tang 1998

| SMILES | prevention of NMDA receptor-mediated death of retinal ganglion cells in vivo (retinal ganglion cells [1]) | protection of oxygen/glucose-deprived RGCs from apoptotic cell death (in words) (retinal ganglion cells [2]) | protective effect on neurons under ischemic or excitotoxic conditions [4] | NMDA receptor mediated currents (NMDA receptor) | also measured |
| --- | --- | --- | --- | --- | --- |
| NC(CCCCCP(=O)(O)O)C(=O)O (stereo not drawn) | prevent NMDA receptor-mediated death of retinal ganglion cells in vivo |  |  |  |  |
| NC(CCCP(=O)(O)O)C(=O)O (racemic) [AP-5, DL-2-amino-5-phosphonovaleric acid] |  | demonstrated biological activity in protecting oxygen/glucose-deprived RGCs from apoptotic cell death |  |  | protective effect in neocortical tissue slices [3]: protective effect |
| NC(CCCCCP(=O)(O)O)C(=O)O (racemic) [AP-7] |  | demonstrated biological activity in protecting oxygen/glucose-deprived RGCs from apoptotic cell death |  |  | increase of extracellular LDH and neuronal disintegration by potassium cyanide and NMDA (cortical neuronal cells): partially prevented |
| N=C(NCCC[C@H](N)C(=O)O)N[N+](=O)[O-] [N^G-nitro-L-arginine] |  |  |  |  | increase of extracellular LDH and neuronal disintegration by potassium cyanide and NMDA (cortical neuronal cells; [6]): partially prevented |
| O=C(O)c1ccccc1Nc1cccc(C(F)(F)F)c1 [flufenamic acid] |  | demonstrated biological activity in protecting oxygen/glucose-deprived RGCs from apoptotic cell death | protective effect | inhibited NMDA receptor mediated currents |  |
| O=C(O)c1cc(=O)c2ccccc2[nH]1 [kynurenic acid] | prevent NMDA receptor-mediated death of retinal ganglion cells in vivo |  |  |  |  |
| Cc1ccc(Cl)c(Nc2ccccc2C(=O)O)c1Cl [meclofenamic acid] |  | to a lesser extent; also recorded: Less efficacy | protective effect | inhibited NMDA receptor mediated currents |  |
| Cc1cccc(Nc2ccccc2C(=O)O)c1C [mefenamic acid] |  | to a lesser extent; also recorded: Less efficacy | protective effect | inhibited NMDA receptor mediated currents |  |
| COc1ccc2[nH]cc(CCNC(C)=O)c2c1 [melatonin] |  |  |  |  | increase of extracellular LDH and neuronal disintegration by potassium cyanide and NMDA (cortical neuronal cells; [6]): partially prevented |
| CC12CC3CC(C)(C1)CC(N)(C3)C2 [memantine] | prevent NMDA receptor-mediated death of retinal ganglion cells in vivo |  |  |  | prevention of NMDA receptor-mediated death of retinal ganglion cells (in words) (retinal ganglion cells [5]): prevent NMDA receptor-mediated death of retinal ganglion cells; increase in the number of surviving retinal ganglion cells (retinal ganglion cells [5]; administered before retinal ischemia): ~30%; increase in the number of surviving retinal ganglion cells (retinal ganglion cells [5]; administered within 30 minutes of retinal ischemia): ~20% |
